Results as given in publication PMC7382964 (Biochemical pharmacology, 2020).
Values belong to the compound of their own block, whether it stands above or below them.

Legend:
[1] = tested on: A3AR; conditions: Gao et al.; cited from earlier work
[2] = tested on: A3AR; conditions: Gao et al.; cited from earlier work; remark: listed apart in the source
[3] = tested on: A3AR; conditions: cited from earlier work
[4] = biological target: T1, cannabinoid receptor CB1 (Homo sapiens, UniProt P21554); experiment: miniGαi coupling assay with CB1 cannabinoid receptor; assay type: cell-based; conditions: 5 μM
T1 sequence (P21554 whole entry): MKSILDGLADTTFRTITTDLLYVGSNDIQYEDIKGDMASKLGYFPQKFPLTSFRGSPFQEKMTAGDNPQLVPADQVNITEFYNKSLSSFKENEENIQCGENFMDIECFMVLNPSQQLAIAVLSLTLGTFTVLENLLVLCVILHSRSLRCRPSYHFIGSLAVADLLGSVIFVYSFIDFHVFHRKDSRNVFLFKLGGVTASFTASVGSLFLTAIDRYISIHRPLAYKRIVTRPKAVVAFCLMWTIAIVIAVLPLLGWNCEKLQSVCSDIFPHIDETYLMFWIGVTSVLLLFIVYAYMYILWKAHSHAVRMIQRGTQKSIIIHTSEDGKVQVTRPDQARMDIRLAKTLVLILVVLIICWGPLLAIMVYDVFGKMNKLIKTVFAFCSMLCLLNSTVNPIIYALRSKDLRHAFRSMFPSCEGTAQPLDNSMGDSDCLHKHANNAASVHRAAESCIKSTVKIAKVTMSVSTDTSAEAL

[5] = biological target: T1, cannabinoid receptor CB1; experiment: βarr2 recruitment assay with CB1 cannabinoid receptor; assay type: cell-based; conditions: 5 μM
[6] = biological target: hA3AR (Homo sapiens, UniProt P0DMS8); experiment: βarr2 recruitment bioassay; assay type: cell-based
[7] = biological target: T2, hA3AR (Homo sapiens, UniProt P0DMS8); experiment: miniGαi recruitment bioassay; assay type: cell-based
T2 sequence (P0DMS8 1-318): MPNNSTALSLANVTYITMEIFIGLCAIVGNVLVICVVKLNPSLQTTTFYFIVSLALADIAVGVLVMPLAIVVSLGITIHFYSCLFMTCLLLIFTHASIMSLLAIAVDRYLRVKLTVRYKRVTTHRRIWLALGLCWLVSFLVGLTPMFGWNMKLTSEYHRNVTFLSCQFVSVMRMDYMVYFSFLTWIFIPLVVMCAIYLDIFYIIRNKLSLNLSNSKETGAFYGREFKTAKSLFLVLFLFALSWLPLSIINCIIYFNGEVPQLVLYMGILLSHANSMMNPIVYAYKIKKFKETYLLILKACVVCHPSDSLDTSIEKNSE

[8] = addition of 2-chloro substituent
[9] = 90 min read-out, AUC, normalized to NECA

SMILES: CNC(=O)[C@H]1O[C@@H](n2cnc3c(NCc4cccc(I)c4)nc(Cl)nc32)[C@H](O)[C@@H]1O [2-Cl-IB-MECA, 2-chloro-N^6-(3-iodobenzyl)-5′-N-methylcar-boxamidoadenosine]
- agonist class in PathHunter assay for βarr2 recruitment [1]: full agonist
- agonist class in calcium mobilization assay [2]: partial agonist

SMILES: OC[C@H]1O[C@@H](n2cnc3c(N[C@H]4C[C@@H]4c4ccccc4)ncnc32)[C@H](O)[C@@H]1O [compound 1, N^6-((1S,2R)-2-phenyl-1-cyclopropyl)-adenosine]
- signal in miniGαi coupling assay with CB1-LgBiT [4]: unable to generate a signal
- signal in βarr2 recruitment assay with CB1-LgBiT [5]: unable to generate a signal

SMILES: OCC1OC(n2cnc3c(NC4CC4c4ccccc4)ncnc32)C(O)C1O (stereo not shown) [compound 2]
- fold reduction in potency versus compound 1, βarr2 ([6]; inversion to 1R,2S orientation): 40 fold
- fold reduction in potency versus compound 1, miniGαi ([7]; inversion to 1R,2S orientation): ~100 fold

SMILES: OCC1OC(n2cnc3c(NC4CCCCC4c4ccccc4)ncnc32)C(O)C1O (stereo not shown) [compound 4]
- receptor activation signal, βarr2 bioassay [6]: no clear activation signal
- receptor activation signal, miniGαi bioassay [7]: no clear activation signal

SMILES: CC(Cc1ccccc1)Nc1nc(Cl)nc2c1ncn2C1OC(CO)C(O)C1O (stereo not shown) [compound 9]
- fold increased potency versus compound 8, βarr2 [6, 8]: approximately five
- fold increased potency versus compound 8, miniGαi [7, 8]: approximately five

SMILES: CC(C)Nc1ncnc2c1ncn2[C@@H]1O[C@H](CO)[C@H](O)C1O (stereo partly shown) [compound 10]
- EC50 ([6]; read-out: EC50, βarr2 recruitment, 90 min read-out, AUC, normalized to NECA): 669 nM
- EC50 ([7]; read-out: EC50, miniGαi recruitment, 90 min read-out, AUC, normalized to NECA): 433 nM

SMILES: OCC1OC(n2cnc3c(NC(C4CC4)C4CC4)ncnc32)C(O)C1O (stereo not shown) [compound 13]
- receptor activation signal, βarr2 bioassay [6]: same observation
- receptor activation signal, miniGαi bioassay [7]: same observation

SMILES: OC[C@H]1O[C@@H](n2cnc3c(NCC(c4ccccc4)c4ccccc4)ncnc32)[C@H](O)[C@@H]1O [compound 19]
- functional class in the cAMP pathway ([3]; Tchilibon et al.): antagonist

Other lines, results leading:

- receptor activation signal, βarr2 bioassay [6]: could not be measured
- receptor activation signal, miniGαi bioassay [7]: could not be measured
SMILES: CC(C)C(Nc1ncnc2c1ncn2C1OC(CO)C(O)C1O)C(C)C (stereo not shown) [compound 12]

- EC50, βarr2 recruitment [6, 9]: micromolar range
- EC50, miniGαi recruitment [7, 9]: micromolar range
SMILES: OC[C@H]1O[C@@H](n2cnc3c(NCc4ccco4)ncnc32)[C@H](O)[C@@H]1O [compound 14]

- EC50, βarr2 recruitment [6, 9]: micromolar range
- EC50, miniGαi recruitment [7, 9]: micromolar range
SMILES: OCC1OC(n2cnc3c(NCc4cccs4)ncnc32)C(O)C1O (stereo not shown) [compound 15]

- EC50, βarr2 recruitment [6, 9]: micromolar range
- EC50, miniGαi recruitment [7, 9]: micromolar range
SMILES: OCC1OC(n2cnc3c(NC4CCc5ccccc54)ncnc32)C(O)C1O (stereo not shown) [compound 17]
